Assay results: patent publication US20140315943A1, “COMBINATION THERAPY OF HSP90 INHIBITORY COMPOUNDS WITH MTOR/P13K INHIBITORS” (SYNTA PHARMACEUTICALS CORP., priority 2011, published 2014)
Read-outs that look alike come from different tables or passages of the source.

Tests used:
AKT and ERK = experiment: Western blot of signaling pathways, AKT and ERK activity; type: cell-based; conditions: A375 melanoma cells
Experimental: (§1) A375 melanoma cells (BRAF^V600E mutant) were purchased from the American Type Culture Collection (Manassas, Va.) and grown in RPMI or DMEM, in the presence of fetal bovine serum (10%), 2 mM L-glutamine and antibiotics (100 IU/ml penicillin and […] streptomycin) purchased from Sigma Aldrich. Cells were maintained at 37° C., 5% CO2 atmosphere.
(§2) Cells, treated with compound for 24 hr, were lysed in RIPA buffer (CST, Danvers, Mass., USA) on ice and clarified by centrifugation. Equal amounts of proteins were resolved by SDS-PAGE and immunoblotted with indicated antibodies. The antigen-antibody complex was visualized and quantitated using an Odyssey system (LI-COR, Lincoln, Nebr., USA).

4EBP1 = experiment: Western blot, 4EBP1 dephosphorylation; type: cell-based; conditions: A375 melanoma cells
Experimental: as §1, §2

[1] = tested on: androgen receptor (AR), Akt; experiment: Everolimus-induced AR expression and Akt activity, apoptosis (FIG. 1); type: cell-based; conditions: in combination with everolimus
Source text: as §2

B-raf = conditions: cited from earlier work
MEK = experiment: Western blot, feedback activation of MEK; type: cell-based; conditions: melanoma cells, FIG. 5
Experimental: as §1, §2

[2] = tested on: androgen receptor, AKT, PARP; experiment: Western blot in LNCaP cells: androgen receptor, AKT, PARP cleavage; type: cell-based; conditions: FIG. 2
Source text: as §2

SMILES | AKT and ERK activity (AKT and ERK) | Inhibition of AKT (AKT and ERK; Western blot, FIG. 4) | dephosphorylation of 4EBP1 (4EBP1) | apoptosis [1] | everolimus-induced AR expression and Akt activity [1] | B-raf degradation (B-raf; A375 (V600E) versus CHL cells (wild type B-raf)) | B-raf degradation (B-raf; B-raf mutants E586K and L597V) | B-raf degradation (B-raf; B-raf mutants V600D, G469A, G469E, G596R, G466V, G594V in COS cells) | feedback activation of MEK (MEK) | Akt deactivation [2]
CC(C)c1cc(-c2nnc(O)n2-c2ccc3c(ccn3C)c2)c(O)cc1O [ganetespib, 3-(2,4-DIHYDROXY-5- ISOPROPYL-PHENYL)-4-(1- METHYL-INDOL-5-YL)-5- HYDROXY-[1,2,4] TRIAZOLE] | effective in disrupting AKT and ERK activity | blocked by lower concentrations of ganetespib compared to BEZ-235 | could not completely dephosphorylate 4EBP1 | increased apoptosis | sufficient in blocking everolimus-induced AR expression and Akt activity |  |  |  |  | 
C=CCNC1=C2C[C@@H](C)C[C@H](OC)[C@H](O)[C@@H](C)/C=C(\C)[C@H](OC(N)=O)[C@@H](OC)/C=C\C=C(/C)C(=O)NC(=CC1=O)C2=O [Compound 17AAG] |  |  |  |  |  | B-raf was degraded more rapidly than in CHL cells | not sensitive to degradation | degraded more rapidly than wild type B-raf |  | 
Cn1c(=O)n(-c2ccc(C(C)(C)C#N)cc2)c2c3cc(-c4cnc5ccccc5c4)ccc3ncc21 [BEZ235, 2-methyl-2-[4-[3-methyl-2-oxo-8-(quinolin-3-yl)-2,3-dihydroimidazo[4,5-c]quinolin-1-yl]phenyl]propionitrile] | enhanced the activity of AKT and ERK |  | sufficient to dephosphorylate 4EBP1 |  |  |  |  |  | feedback activation of MEK observed | able to deactivate Akt
